Literature values as cited in patent publication US9409783B2, “Method for manufacturing mesoporous materials, materials so produced and use of mesoporous materials” (Nanologica AB, priority 2008, dated 2016).

Settings: L-glutamate group of folic acid; deprotonated and negatively charged above this pH

pKa value: 8.3
SMILES: Nc1nc2ncc(CNc3ccc(C(=O)N[C@@H](CCC(=O)O)C(=O)O)cc3)nc2c(=O)[nH]1 [folic acid]
